One experiment concerns HCC827. Briefly: Cytotoxicity against human HCC827 cells harboring EGFR del E746-A750 mutant assessed as reduction in cell viability measured after 48 hrs by CCK8 assay. It is filed as functional, cell-based. The conditions noted are these: HCC827, 48 h.
In experiment [1] the test system is Epidermal growth factor receptor (Homo sapiens), P00533 [L858R,T790M,C797S]. Briefly: Inhibition of […] EGFR L858R/T790M/C797S mutant (unknown origin) at 2 nM pretreated with substrate for 10 mins followed by ATP addition measured after 60 mins by mobility shift assay relative to control.
The test system of the next experiment is NCI-H460. Kind of experiment: Cytotoxicity against human NCI-H460 cells harboring wild type EGFR assessed as reduction in cell viability measured after 48 hrs by CCK8 assay. It is filed as functional, cell-based. The conditions noted are these: NCI-H460, 48 h.
A short description of experiment [2]: Cytotoxicity against human HBE cells assessed as reduction in cell viability measured after 48 hrs by CCK8 assay. In kind it is cell-based.
The subject of a further experiment is NCI-H1975. Briefly: Cytotoxicity against human NCI-H1975 cells harboring EGFR L858R/T790M mutant assessed as reduction in cell viability measured after 48 hrs by CCK8 assay. The conditions noted are these: NCI-H1975, 48 h. It is filed as functional, cell-based.
Experiment [3] concerns Epidermal growth factor receptor (Homo sapiens), P00533 [L858R,T790M]. Kind of experiment: Inhibition of […] EGFR L858R/T790M mutant (unknown origin) at 2 nM pretreated with substrate for 10 mins followed by ATP addition measured after 60 mins by mobility shift assay relative to control.
Epidermal growth factor receptor (Homo sapiens), P00533 [L858R,T790M], sequence (P00533 whole entry T790M/L858R, looked up): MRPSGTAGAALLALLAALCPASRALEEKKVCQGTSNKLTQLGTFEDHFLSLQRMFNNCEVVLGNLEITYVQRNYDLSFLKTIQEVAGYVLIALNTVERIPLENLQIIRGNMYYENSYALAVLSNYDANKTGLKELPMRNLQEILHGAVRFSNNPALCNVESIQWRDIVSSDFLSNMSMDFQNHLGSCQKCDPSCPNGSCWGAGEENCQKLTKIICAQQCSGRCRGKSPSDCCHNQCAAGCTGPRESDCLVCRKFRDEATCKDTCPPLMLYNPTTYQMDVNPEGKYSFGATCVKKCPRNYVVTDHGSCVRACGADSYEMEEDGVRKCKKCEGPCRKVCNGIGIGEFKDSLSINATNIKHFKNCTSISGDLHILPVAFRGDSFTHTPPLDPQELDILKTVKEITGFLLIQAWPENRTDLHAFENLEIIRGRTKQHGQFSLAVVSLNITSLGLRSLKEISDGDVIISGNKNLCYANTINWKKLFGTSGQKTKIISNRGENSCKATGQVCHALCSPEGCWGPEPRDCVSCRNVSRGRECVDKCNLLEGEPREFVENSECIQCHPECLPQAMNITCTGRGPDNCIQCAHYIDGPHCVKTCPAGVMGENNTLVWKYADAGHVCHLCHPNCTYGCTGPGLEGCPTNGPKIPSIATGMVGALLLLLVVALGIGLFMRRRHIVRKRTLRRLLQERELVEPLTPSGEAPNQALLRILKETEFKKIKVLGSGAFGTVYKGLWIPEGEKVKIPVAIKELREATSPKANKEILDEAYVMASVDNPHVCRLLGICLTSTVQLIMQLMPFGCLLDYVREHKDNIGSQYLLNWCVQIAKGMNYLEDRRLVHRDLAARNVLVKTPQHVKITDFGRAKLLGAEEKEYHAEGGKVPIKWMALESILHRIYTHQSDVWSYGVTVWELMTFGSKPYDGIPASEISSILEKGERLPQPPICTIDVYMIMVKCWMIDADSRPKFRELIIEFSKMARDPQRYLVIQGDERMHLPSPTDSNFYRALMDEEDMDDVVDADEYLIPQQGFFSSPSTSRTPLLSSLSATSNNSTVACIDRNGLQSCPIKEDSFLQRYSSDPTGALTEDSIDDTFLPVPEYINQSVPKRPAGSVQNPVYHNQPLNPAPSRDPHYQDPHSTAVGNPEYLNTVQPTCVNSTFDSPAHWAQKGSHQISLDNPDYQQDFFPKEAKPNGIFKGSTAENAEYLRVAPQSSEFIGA
Experiment [4] has as its system Epidermal growth factor receptor (Homo sapiens), P00533 [C797S]. Briefly: Inhibition of […] EGFR C797S mutant (unknown origin) at 2 nM pretreated with substrate for 10 mins followed by ATP addition measured after 60 mins by mobility shift assay relative to control.
For experiment [5], the system named is Epidermal growth factor receptor (Homo sapiens), P00533 [UNDEFINED MUTATION]. Briefly: Inhibition of […] EGFR Del E746/A750 mutant (unknown origin) at 2 nM pretreated with substrate for 10 mins followed by ATP addition measured after 60 mins by mobility shift assay relative to control.
Experiment [6] concerns the target Epidermal growth factor receptor (Homo sapiens, UniProt P00533). Kind of experiment: Inhibition of wild type EGFR (unknown origin) at 80 nM pretreated with substrate for 10 mins followed by ATP addition measured after 60 mins by mobility shift assay relative to control.
The next experiment relates to A549. Kind of experiment: Cytotoxicity against human A549 cells harboring wild type EGFR assessed as reduction in cell viability measured after 48 hrs by CCK8 assay. It is filed as functional, cell-based. The conditions noted are these: A549, 48 h.
Experiment [7] has as its system Epidermal growth factor receptor (Homo sapiens), P00533 [T790M]. Kind of experiment: Inhibition of […] EGFR T790M mutant (unknown origin) at 2 nM pretreated with substrate for 10 mins followed by ATP addition measured after 60 mins by mobility shift assay relative to control.
Experiment [8] deals with Epidermal growth factor receptor (Homo sapiens), P00533 [L858R]. Kind of experiment: Inhibition of […] EGFR L858R mutant (unknown origin) at 2 nM pretreated with substrate for 10 mins followed by ATP addition measured after 60 mins by mobility shift assay relative to control.
Epidermal growth factor receptor (Homo sapiens), P00533 [L858R], sequence (P00533 whole entry L858R): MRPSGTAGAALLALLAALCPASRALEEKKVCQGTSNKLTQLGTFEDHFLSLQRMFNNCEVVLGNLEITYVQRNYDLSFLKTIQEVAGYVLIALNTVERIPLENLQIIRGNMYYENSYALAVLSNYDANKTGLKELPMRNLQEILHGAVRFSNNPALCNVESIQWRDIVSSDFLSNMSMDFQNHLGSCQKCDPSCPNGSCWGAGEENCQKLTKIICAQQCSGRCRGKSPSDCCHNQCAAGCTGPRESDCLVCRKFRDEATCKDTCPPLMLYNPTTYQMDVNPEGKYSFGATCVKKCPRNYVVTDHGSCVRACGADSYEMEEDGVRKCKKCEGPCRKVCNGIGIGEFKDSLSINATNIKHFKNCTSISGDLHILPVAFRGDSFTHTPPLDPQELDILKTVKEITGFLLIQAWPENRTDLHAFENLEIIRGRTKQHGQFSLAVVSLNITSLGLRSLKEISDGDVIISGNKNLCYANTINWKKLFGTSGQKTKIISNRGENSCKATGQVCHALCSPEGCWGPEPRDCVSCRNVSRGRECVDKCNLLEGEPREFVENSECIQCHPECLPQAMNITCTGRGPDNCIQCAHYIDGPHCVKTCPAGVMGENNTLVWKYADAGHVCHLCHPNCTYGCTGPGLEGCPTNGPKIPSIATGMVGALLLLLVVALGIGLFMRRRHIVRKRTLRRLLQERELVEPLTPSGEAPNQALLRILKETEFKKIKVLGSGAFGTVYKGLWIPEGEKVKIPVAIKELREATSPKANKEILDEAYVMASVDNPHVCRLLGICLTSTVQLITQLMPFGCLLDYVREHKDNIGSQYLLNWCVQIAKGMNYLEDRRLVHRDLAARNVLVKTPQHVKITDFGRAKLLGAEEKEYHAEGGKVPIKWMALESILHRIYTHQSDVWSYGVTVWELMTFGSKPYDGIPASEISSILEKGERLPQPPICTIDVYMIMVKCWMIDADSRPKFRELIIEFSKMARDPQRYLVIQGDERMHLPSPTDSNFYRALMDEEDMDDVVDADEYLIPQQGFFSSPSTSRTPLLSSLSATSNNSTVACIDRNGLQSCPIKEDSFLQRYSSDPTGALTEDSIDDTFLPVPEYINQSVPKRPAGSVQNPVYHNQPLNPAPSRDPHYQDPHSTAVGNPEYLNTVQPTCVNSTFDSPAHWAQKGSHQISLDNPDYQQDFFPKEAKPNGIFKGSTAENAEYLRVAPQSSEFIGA
The next experiment deals with BEAS-2B. Briefly: Cytotoxicity against human BEAS-2B cells assessed as reduction in cell viability measured after 48 hrs by CCK8 assay. In kind it is cell-based.

Epidermal growth factor receptor (Homo sapiens), P00533 [C797S], sequence (P00533 whole entry C797S): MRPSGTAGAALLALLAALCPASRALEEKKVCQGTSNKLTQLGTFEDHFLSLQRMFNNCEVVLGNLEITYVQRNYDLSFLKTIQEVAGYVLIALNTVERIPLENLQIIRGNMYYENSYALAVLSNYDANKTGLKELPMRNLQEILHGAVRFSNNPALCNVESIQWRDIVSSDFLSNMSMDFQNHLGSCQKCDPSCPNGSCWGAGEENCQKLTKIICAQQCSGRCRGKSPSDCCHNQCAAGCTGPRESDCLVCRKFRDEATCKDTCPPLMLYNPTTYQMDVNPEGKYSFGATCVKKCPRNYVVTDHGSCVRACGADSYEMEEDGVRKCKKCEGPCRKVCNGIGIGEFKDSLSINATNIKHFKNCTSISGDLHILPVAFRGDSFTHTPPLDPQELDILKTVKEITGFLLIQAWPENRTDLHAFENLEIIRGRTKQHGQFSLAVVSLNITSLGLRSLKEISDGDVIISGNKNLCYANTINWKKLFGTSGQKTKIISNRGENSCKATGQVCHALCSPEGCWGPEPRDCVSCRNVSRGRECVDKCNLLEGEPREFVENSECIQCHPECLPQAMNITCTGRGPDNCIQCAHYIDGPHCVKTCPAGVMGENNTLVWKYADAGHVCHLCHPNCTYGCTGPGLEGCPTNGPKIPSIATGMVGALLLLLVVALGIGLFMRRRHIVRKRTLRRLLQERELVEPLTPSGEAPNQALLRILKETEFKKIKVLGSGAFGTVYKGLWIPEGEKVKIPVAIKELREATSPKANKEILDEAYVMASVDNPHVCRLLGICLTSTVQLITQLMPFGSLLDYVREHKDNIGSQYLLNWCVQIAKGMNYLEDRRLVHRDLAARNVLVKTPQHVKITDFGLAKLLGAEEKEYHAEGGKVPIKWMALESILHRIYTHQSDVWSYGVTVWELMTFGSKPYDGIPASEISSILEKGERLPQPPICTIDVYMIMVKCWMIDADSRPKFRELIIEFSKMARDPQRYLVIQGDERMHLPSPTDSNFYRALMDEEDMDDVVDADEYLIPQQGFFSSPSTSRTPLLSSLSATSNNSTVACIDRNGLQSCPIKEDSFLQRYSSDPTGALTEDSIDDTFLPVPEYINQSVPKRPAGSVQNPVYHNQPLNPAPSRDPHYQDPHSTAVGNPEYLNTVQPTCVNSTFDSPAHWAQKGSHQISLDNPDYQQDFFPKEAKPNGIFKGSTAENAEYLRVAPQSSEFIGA
Epidermal growth factor receptor (Homo sapiens), P00533 [T790M], sequence (P00533 whole entry T790M): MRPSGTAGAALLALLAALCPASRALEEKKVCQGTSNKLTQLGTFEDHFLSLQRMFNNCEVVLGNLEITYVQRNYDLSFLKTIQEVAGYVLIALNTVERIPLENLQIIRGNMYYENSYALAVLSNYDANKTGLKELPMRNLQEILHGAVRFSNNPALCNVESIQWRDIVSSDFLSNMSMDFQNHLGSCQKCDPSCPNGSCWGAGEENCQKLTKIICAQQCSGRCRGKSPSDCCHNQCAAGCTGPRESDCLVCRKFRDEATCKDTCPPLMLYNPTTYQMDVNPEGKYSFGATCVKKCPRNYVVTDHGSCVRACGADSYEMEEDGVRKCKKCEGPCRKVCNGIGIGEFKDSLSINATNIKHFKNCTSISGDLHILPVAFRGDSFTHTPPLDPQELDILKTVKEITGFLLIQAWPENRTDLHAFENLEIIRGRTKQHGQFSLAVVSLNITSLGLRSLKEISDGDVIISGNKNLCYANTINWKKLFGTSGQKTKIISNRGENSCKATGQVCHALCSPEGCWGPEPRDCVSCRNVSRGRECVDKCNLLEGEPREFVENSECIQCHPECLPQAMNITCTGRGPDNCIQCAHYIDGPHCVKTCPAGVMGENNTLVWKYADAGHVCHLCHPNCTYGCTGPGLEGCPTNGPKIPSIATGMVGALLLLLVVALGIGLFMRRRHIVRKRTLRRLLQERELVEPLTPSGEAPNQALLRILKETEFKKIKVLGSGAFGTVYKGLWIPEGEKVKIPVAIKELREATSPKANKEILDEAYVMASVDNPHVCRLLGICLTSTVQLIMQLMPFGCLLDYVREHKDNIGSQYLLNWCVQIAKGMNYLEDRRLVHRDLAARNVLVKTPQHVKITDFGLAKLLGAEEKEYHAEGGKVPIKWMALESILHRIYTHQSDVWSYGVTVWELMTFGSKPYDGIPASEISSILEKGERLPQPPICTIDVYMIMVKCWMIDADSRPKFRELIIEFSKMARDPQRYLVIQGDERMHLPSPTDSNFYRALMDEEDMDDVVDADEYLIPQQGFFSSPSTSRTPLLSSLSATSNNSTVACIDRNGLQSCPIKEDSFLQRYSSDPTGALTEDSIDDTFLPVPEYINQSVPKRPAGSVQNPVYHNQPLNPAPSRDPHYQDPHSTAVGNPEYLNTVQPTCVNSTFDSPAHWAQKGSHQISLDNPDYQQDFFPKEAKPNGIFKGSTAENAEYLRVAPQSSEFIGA

Regarding `C=CC(=O)Nc1cccc(Oc2nc(Nc3ccc(N4CCN(C)CC4)c(OC)c3)nc3[nH]ccc23)c1`, the IC50 in the experiment with HCC827 turned out to be 0.26 µM; with NCI-H460, 33.6 µM; in [2], 12.5 µM; in the experiment with NCI-H1975, 22.4 µM; in the experiment on A549, 20.6 µM; in the experiment on BEAS-2B, 9.89 µM. In addition, the inhibition worked out at 7.8% in experiment [1]; 42% in experiment [3]; 13% in experiment [4]; 25% in [5]; 32% in experiment [6]; 97% in experiment [7]. The inhibition in experiment [8] came out at 31%.

As to `C=CC(=O)Nc1cccc(Oc2nc(Nc3ccc(N4CCN(C)CC4)c([N+](=O)[O-])c3)nc3c2ccn3COC(=O)C(C)(C)C)c1`, the IC50 with HCC827 came out at 0.44 µM; in the experiment with NCI-H460 it was 4.68 µM; in experiment [2], 3.61 µM; in the experiment on NCI-H1975, 4.12 µM; in the experiment with A549, 3.1 µM; in the experiment on BEAS-2B, 5.73 µM. Further, the inhibition in experiment [1] worked out at 8.4%; in [3], 3.5%; in [4], 6.3%; in [5], 0.41%; in experiment [6], 4.7%; in experiment [7], 7.9%. Moreover, the inhibition in experiment [8] came out at 13%.

With `C=CC(=O)Nc1cccc(Oc2nc(Nc3ccc(N4CCN(C)CC4)c(Cl)c3)nc3[nH]ccc23)c1`, the IC50 in the experiment with HCC827 was 0.12 µM; in the experiment with NCI-H460, 4.86 µM; in experiment [2], 8.73 µM; with NCI-H1975, 1.67 µM; in the experiment with A549 it was 1.68 µM; in the experiment with BEAS-2B it was 3.8 µM. Further, the inhibition in [1] came out at 9.2%; in [3] it was 92%; in experiment [4], 4.8%; in experiment [5], 44%; in experiment [6], 86%; in experiment [7], 98%. In experiment [8], the inhibition stood at 41%.

Consider `C=CC(=O)Nc1cccc(Oc2nc(Nc3ccc(N4CCN(C)CC4)c(N)c3)nc3c2ccn3COC(=O)C(C)(C)C)c1`, for which the half-maximal inhibitory concentration (IC50) in the experiment with HCC827 was 0.33 µM; in the experiment on NCI-H460 it was 7.65 µM; in [2], 9.58 µM; in the experiment with NCI-H1975, 42 µM; in the experiment with A549, 10.8 µM; with BEAS-2B, 9.54 µM. Moreover, the inhibition was 3.6% in experiment [1]; 2.4% in experiment [3]; 2.2% in experiment [4]; 11% in [5]; 4.5% in [6]; 7.3% in [7]. The inhibition in experiment [8] was determined as 9.7%.

For the compound `C=CC(=O)Nc1cccc(Oc2nc(Nc3ccc(N4CCN(C)CC4)cc3)nc3[nH]ccc23)c1`, the half-maximal inhibitory concentration (IC50) in the experiment on HCC827 stood at 0.24 µM; in the experiment on NCI-H460, 36 µM; in [2], 28.1 µM; in the experiment on NCI-H1975, 22 µM; with A549, 9.92 µM; in the experiment on BEAS-2B, 23.8 µM.

These data come from ChEMBL document CHEMBL4828722, “The synthesis and bioactivity of pyrrolo[2,3-d]pyrimidine derivatives as tyrosine kinase inhibitors for NSCLC cells with EGFR mutations” (Eur J Med Chem, 2021).
